Measurements published in US9220928B2, “Plant extracts from Acronychia species and their use” (EcoBiotics Ltd, priority 2008, dated 2015).

Test system: Streptococcus salivarius K40
Experiment: Antibacterial growth inhibition assay
Type: cell-based
Conditions: HPLC fractions and two pure compounds, further test; Table 9
Experimental: The bacteria used in these studies were: • Streptococcus salivarius […] • Bacillus subtilis All antibacterial assays were carried out in a laminar flow cabinet using the protocol described below. Growth or no-growth was assessed visually and by ELISA reader. […] This was then placed in the bacterial shaker at 37° C. at 210 rpm overnight. • 2) A blank reading was made on the spectrophotometer at 600 nm using […] of Columbia broth. A reading of 200 μL of the starter culture was then taken. • 3) In calculations, a final concentration of 0.005 was desired. The formula used for dilution of x mL starter was: x*A600=0.005*desired volume • 4) 90 uL of MeOH was added to each well of a 96 well flat bottomed plate. 10 μL of sample was added to the top well and diluted 1:10 down the plate. Alternatively the top rows were left empty of MeOH and 100 μL of sample was added and then diluted at 1:10 down the plate. • 5) The plates were then left to dry in a biological safety cabinet for 2-3 hours or until all solvent had evaporated off the plate. • 6) 100 μL of diluted bacterial culture was then added to each well of the plate. The plate was then placed in the bacterial incubator at 37° C. overnight. […] For quantitation, plates were read at 405 nm (ELISA). […]

| Compound | Amount of fraction giving 100% inhibition of growth of S. salivarius |
| --- | --- |
| CC(C)=CCC/C(C)=C/CC/C(C)=C/COc1ccc(CCC(=O)O)cc1 [EBC111, 3-(4-farnesyloxyphenyl)propionic acid] | 10Ag |
| COc1cc(CCC(=O)O)ccc1OC/C=C(\C)CC/C=C(\C)CCC=C(C)C [EBC125, 3-(4-farnesyloxy-3-methoxyphenyl)propionic acid] | 1 µL |
